In US20250051347A1, “BIFUNCTIONAL CHIMERIC HETEROCYCLIC COMPOUND AND USE THEREOF AS ANDROGEN RECEPTOR DEGRADER” (Hinova Pharmaceuticals, Inc., priority 2021, published 2025) one finds DC50 data, which are given here for 18 molecules.

For the first experiment, the target named is T1, androgen receptor (AR) splicing variant AR-v7 (Homo sapiens, UniProt P10275).
T1 construct: The degradation activity of compounds on AR-v7 in 22RV1 cells; host or cells: 22RV1 cells
T1 sequence (P10275 1-644 isoform P10275-3): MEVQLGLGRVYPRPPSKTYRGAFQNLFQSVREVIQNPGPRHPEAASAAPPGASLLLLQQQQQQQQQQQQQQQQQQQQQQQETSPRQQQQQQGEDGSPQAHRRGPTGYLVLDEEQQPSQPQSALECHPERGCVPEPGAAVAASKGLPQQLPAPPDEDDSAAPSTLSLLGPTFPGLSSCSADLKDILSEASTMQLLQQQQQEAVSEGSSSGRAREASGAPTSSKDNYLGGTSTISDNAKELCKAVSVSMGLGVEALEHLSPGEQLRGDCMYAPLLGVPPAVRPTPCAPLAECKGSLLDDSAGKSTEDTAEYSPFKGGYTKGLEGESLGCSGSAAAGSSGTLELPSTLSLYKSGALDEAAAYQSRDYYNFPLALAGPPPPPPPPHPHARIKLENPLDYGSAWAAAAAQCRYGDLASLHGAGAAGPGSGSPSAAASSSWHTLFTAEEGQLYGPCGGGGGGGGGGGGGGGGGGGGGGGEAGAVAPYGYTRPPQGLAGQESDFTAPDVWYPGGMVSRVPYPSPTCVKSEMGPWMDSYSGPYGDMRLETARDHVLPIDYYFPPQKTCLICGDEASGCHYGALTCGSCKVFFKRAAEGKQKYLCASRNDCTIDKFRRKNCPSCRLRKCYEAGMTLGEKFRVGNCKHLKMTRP
The experiment in a line: Degradation activity on androgen receptor splicing variant AR-v7 in 22RV1 cells (ELISA). It is filed as cell-based. The note with it: AR-v7 degradation in 22RV1 cells, 48 h, class symbols. Background: An ELISA detects its analyte on a solid surface through an enzyme-linked reagent.
The term DC50 denotes the concentration giving 50% degradation. A higher DC50 goes with a less potent degrader. The molecule `CC(C)(c1ccc(OCCCNc2ccc3c(c2)C(=O)N(C2CCC(=O)NC2=O)C3=O)cc1)c1ccc(OCc2ccnc(S(C)(=O)=O)n2)cc1` (stereo not drawn) [Example 67, 2-(2,6-dioxopiperidin-3-yl)-5-((3-(4-(2-(4-(4-(2-(methanesulfonyl)pyrimidin-4-yl)methoxy)phenyl)propan-2-yl)phenoxy)propyl)amino)isoindolin-1,3-dione] had a DC50 of 1000 to 5000 nM.

For the molecule `CC(C)(c1ccc(OCc2ccnc(NC#N)n2)cc1)c1ccc(O[C@H]2C[C@H](Nc3ccc4c(c3)C(=O)N(C3CCC(=O)NC3=O)C4=O)C2)cc1` (stereo partly drawn) [Example 245, N-(4-((4-(2-(4-((1s,3s)-3-((2-(2,6-dioxopiperidin-3-yl)-1,3-dioxoisoindolin-5-yl)amino)cyclobutyloxy)phenyl)propan-2-yl)phenoxy)methyl)pyrimidin-2-yl)cyanamide], the DC50 was 101 to 1000 nM.

In turn, `CC(C)(c1ccc(OCCCCCCCCOCCCCNc2ccc3c(c2)C(=O)N(C2CCC(=O)NC2=O)C3=O)cc1)c1ccc(OCc2cccc(NS(C)(=O)=O)n2)cc1` (stereo not drawn) [Example 33, N-(6-((4-(2-(4-((8-(4-((2-(2,6-dioxopiperidin-3-yl)-1,3-dioxoisoindolin-5-yl)amino)butoxy)octyl)oxy)phenyl)propan-2-yl)phenoxy)methyl)pyridin-2-yl)methanesulfonamide] showed a DC50 of 101 to 1000 nM.

The molecule `CC(C)(c1ccc(OCCCCCOc2ccc3c(c2)C(=O)N(C2CCC(=O)NC2=O)C3=O)cc1)c1ccc(OCc2ccnc(NS(C)(=O)=O)n2)cc1` (stereo not drawn) [Example 9, N-(4-((4-(2-(4-((5-((2-(2,6-dioxopiperidin-3-yl)-1,3-dioxoisoindolin-5-yl)oxy)pentyl)oxy)phenyl)propan-2-yl)phenoxy)methyl)pyrimidin-2-yl)methanesulfonamide] had a DC50 of 1000 to 5000 nM.

`CC(C)(c1ccc(OCCCNc2cccc3c2C(=O)N(C2CCC(=O)NC2=O)C3=O)cc1)c1ccc(OCc2nc3ncccc3o2)cc1` (stereo not drawn) [Example 443, 2-(2,6-dioxopiperidin-3-yl)-4-((3-(4-(2-(4-(oxazolo[4,5-b]pyridin-2-ylmethoxy)phenyl)propan-2-yl)phenoxy)propyl)amino)isoindolin-1,3-dione] registered a DC50 of 11 to 100 nM.

For `CC(C)(c1ccc(OCc2ccnc(OC3CCN(C(=O)OCc4ccccc4)CC3)n2)cc1)c1ccc(O[C@H]2C[C@@H](Nc3ccc4c(c3)C(=O)N(C3CCC(=O)NC3=O)C4=O)C2)cc1` (stereo partly drawn) [Example 235], the DC50 was in the range of 101 to 1000 nM.

`Cn1nccc1-c1nccc(COc2ccc(C(C)(C)c3ccc(O[C@H]4C[C@@H](Nc5ccc6c(c5)C(=O)N(C5CCC(=O)NC5=O)C6=O)C4)cc3)cc2)n1` (stereo partly drawn) [Example 417] returned a DC50 of 11 to 100 nM.

As to `CC(C)(c1ccc(Oc2cnc(C(=O)C3CCC3)nc2)cc1)c1ccc(O[C@H]2C[C@H](Nc3ccc4c(c3)C(=O)N(C3CCC(=O)NC3=O)C4=O)C2)cc1` (stereo partly drawn) [Example 262], the DC50 lay in the range of 11 to 100 nM.

Molecule `CC(C)(c1ccc(OCc2ccnc(NS(C)(=O)=O)n2)cc1)c1ccc(OCC2CN(c3cccc4c3C(=O)N(C3CCC(=O)NC3=O)C4=O)C2)cc1` (stereo not drawn) [Example 49, N-(4-((4-(2-(4-((1-(2-(2,6-dioxopiperidin-3-yl)-1,3-dioxoisoindolin-4-yl)azetidin-3-yl)methoxy)phenyl)propan-2-yl)phenoxy)methyl)pyrimidin-2-yl)methanesulfonamide] had a DC50 of 1000 to 5000 nM.

Molecule `CC(C)(c1ccc(OCCCCCCCCOCCCCNc2ccc3c(c2)C(=O)N(C2CCC(=O)NC2=O)C3=O)cc1)c1ccc(OCc2ccnc(NS(C)(=O)=O)n2)cc1` (stereo not drawn) [Example 22, N-(4-((4-(2-(4-((8-(4-((2-(2,6-dioxopiperidin-3-yl)-1,3-dioxoisoindolin-5-yl)amino)butoxy)octyl)oxy)phenyl)propan-2-yl)phenoxy)methyl)pyrimidin-2-yl)methanesulfonamide] yielded a DC50 of 101 to 1000 nM.

For `CC(C)(c1ccc(OCc2ccnc(N3CC4(COC4)C3)n2)cc1)c1ccc(O[C@]2(C)C[C@@H](Nc3ccc4c(c3)C(=O)N(C3CCC(=O)NC3=O)C4=O)C2)cc1` (stereo partly drawn) [Example 499, 5-((1r,3r)-3-(4-(2-(4-(4-((2-(2-oxa-6-azaspiro[3.3]heptane-6-yl)pyrimidin-4-yl)methoxy)phenyl)propan-2-yl)phenoxy)-3-methylcyclobutyl)amino)-2-(2,6-dioxopiperidin-3-yl)isoindolin-1,3-dione], the DC50 is 11 to 100 nM.

Molecule `CC(C)(c1ccc(OCc2ccnc(N3CCC4(CC3)CNC4)n2)cc1)c1ccc(O[C@H]2C[C@@H](Nc3ccc4c(c3)C(=O)N(C3CCC(=O)NC3=O)C4=O)C2)cc1` (stereo partly drawn) [Example 84, 5-(((1s,3s)-3-(4-(2-(4-((2-(2,7-diazaspiro[3.5]nonan-7-yl)pyrimidin-4-yl)methoxy)phenyl)propan-2-yl)phenoxy)cyclobutyl)amino)-2-(2,6-dioxopiperidin-3-yl)isoindolin-1,3-dione] displayed a DC50 of 11 to 100 nM.

`Cc1nc(-c2cnc(Oc3ccc(C(C)(C)c4ccc(O[C@H]5C[C@H](Nc6ccc7c(c6)C(=O)N(C6CCC(=O)NC6=O)C7=O)C5)cc4)cc3)nc2)no1` (stereo partly drawn) [Example 327] showed a DC50 of 11 to 100 nM.

Staying with this experiment, now noted: AR-v7 degradation in 22RV1 cells, 48 h, numeric values.
Regarding `CC(C)(c1ccc(OCc2ccnc(NS(C)(=O)=O)n2)cc1)c1ccc(OCC2CN(c3ccc4c(c3)C(=O)N(C3CCC(=O)NC3=O)C4=O)C2)cc1` (stereo not drawn) [Example 48, N-(4-((4-(2-(4-((1-(2-(2,6-dioxopiperidin-3-yl)-1,3-dioxoisoindolin-5-yl)azetidin-3-yl)methoxy)phenyl)propan-2-yl)phenoxy)methyl)pyrimidin-2-yl)methanesulfonamide], the DC50 was > 10000 nM.

Regarding `CC(C)(c1ccc(OCc2ccnc(NS(C)(=O)=O)n2)cc1)c1ccc(OCC2CCN(CCCCOCCCCNc3ccc4c(c3)C(=O)N(C3CCC(=O)NC3=O)C4=O)C2)cc1` (stereo not drawn) [Example 13, N-(4-((4-(2-(4-((1-(4-(4-(4-)((2-(2,6-dioxopiperidin-3-yl)-1,3-dioxoisoindolin-5-yl)amino)butoxy)butyl)pyrrolidin-3-yl)methoxy)phenyl)propan-2-yl)phenoxy)methyl)pyrimidin-2-yl)methanesulfonamide], half-maximal degradation (DC50) was put at 6970 nM.

Consider `CC(C)(c1ccc(OCCCCCCCCOCCCCNc2ccc3c(c2)C(=O)N(C2CCC(=O)NC2=O)C3=O)cc1)c1ccc(OCc2ccnc(-n3cccn3)n2)cc1` (stereo not drawn) [Example 437, 5-((4-((8-(4-(2-(4-((2-(1H-pyrazol-1-yl)pyrimidin-4-yl)methoxy)phenyl)propan-2-yl)phenoxy)octyl)oxy)butyl)amino)-2-(2,6-dioxopiperidin-3-yl)isoindolin-1,3-dione], for which the DC50 is > 10000 nM.

For `CC(C)(c1ccc(OCCCCCCCCOCCCCNc2ccc3c(c2)C(=O)N(C2CCC(=O)NC2=O)C3=O)cc1)c1ccc(OCc2ccnc(Nc3ncco3)n2)cc1` (stereo not drawn) [Example 226], the DC50 was > 10000 nM.

For the molecule `CC(=O)c1cccc(COc2ccc(C(C)(C)c3ccc(OCCCCCCCCOCCCCNc4ccc5c(c4)C(=O)N(C4CCC(=O)NC4=O)C5=O)cc3)cc2)n1` (stereo not drawn) [Example 349, 5-((4-((8-(4-(2-(4-((6-acetylpyridin-2-yl)methoxy)phenyl)isopropan-2-yl)phenoxy)octyl)oxy)tert-butyl)amino)-2-(2,6-dioxopiperidin-3-yl)isoindolin-1,3-dione], the DC50 was > 10000 nM.
